Assay results: patent US20250032525A1 (priority 2021, published 2025)
Like-named read-outs stand apart in the source and are kept apart here.

Assays:
[1] = system: NCI-60 cell lines; test: NCI DTP NCI-60 cell line screen database (sulforhodamine B), panel; type: cell-based; conditions: Homo sapiens
[2] = system: OVCAR-8; conditions: OVCAR-8, NCI-60 database, sulforhodamine B; read-out: Cytotoxic IC50; cited from earlier work
[3] = system: DU-145; conditions: DU-145, NCI-60 database, sulforhodamine B; read-out: Cytotoxic IC50; cited from earlier work
[4] = system: HCT-116; conditions: HCT-116, NCI-60 database, sulforhodamine B; read-out: Cytotoxic IC50; cited from earlier work
[5] = system: MALME-3M; conditions: NCI-60 database, sulforhodamine B, read-out: Cytotoxic IC50; cited from earlier work
[6] = Storage stability of PyDau; type: physicochemical; conditions: monomer form, −20° C.
Protocol: 2-pyrrolinodoxorubicin (PyDox) TFA salt was developed in 1996 (Nagy A. et al.; Proc. Natl. Acad. Sci. U.S.A. 93 (1996). 2464-2469). In the first step Nagy et al. applied 4-iodobutyraldehyde, that was prepared from 2-(3-chloropropyl)-1,3-dioxolane followed by Shiff-base formation and cyclization. The synthesis of 4-iodobutyraldehyde—which is the key step for efficient synthesis-was later improved by Studenovsky et al. (Eur. J. Pharm. Sci. 42 (2011). 156-163). […] Therefore, a new approach was investigated for the preparation of PyDau. First, the stable and storable 4-bromobutyraldehyde was applied for the synthesis. The reaction was carried out in DCM in the presence of excess DIPEA under nitrogen atmosphere at room temperature (RT) for 10 h.

[7] = system: UO-31; test: In vitro cytotoxicity (PrestoBlue); type: cell-based; conditions: Homo sapiens, UO-31, 72 h; read-out: Cytotoxic IC50
Description: (§1) Experiments were repeated at least 3 times.

[8] = system: SW-620; test: In vitro cytotoxicity (PrestoBlue); type: cell-based; conditions: Homo sapiens, SW-620, 72 h; read-out: Cytotoxic IC50
Description: as §1

[9] = system: COLO 205; test: In vitro cytotoxicity (PrestoBlue); type: cell-based; conditions: Homo sapiens, COLO 205, 72 h; read-out: Cytotoxic IC50
Description: as §1

[10] = system: HCC-2998; test: In vitro cytotoxicity (PrestoBlue); type: cell-based; conditions: Homo sapiens; HCC-2998, 72 h; read-out: Cytotoxic IC50
Description: as §1

[11] = system: MALME-3M; test: In vitro cytotoxicity (PrestoBlue); type: cell-based; conditions: Homo sapiens, 72 h, read-out: Cytotoxic IC50
Description: as §1

[12] = system: NCI-H522; test: In vitro cytotoxicity (PrestoBlue); type: cell-based; conditions: Homo sapiens, NCI-H522, 72 h; read-out: Cytotoxic IC50
Description: as §1

[13] = system: HOP-62; test: In vitro cytotoxicity (PrestoBlue); type: cell-based; conditions: Homo sapiens, HOP-62, 72 h; read-out: Cytotoxic IC50
Description: as §1

[14] = system: SK-MEL-28; test: In vitro cytotoxicity (PrestoBlue); type: cell-based; conditions: Homo sapiens, SK-MEL-28, 72 h; read-out: Cytotoxic IC50
Description: as §1

[15] = system: NCI-H226; test: In vitro cytotoxicity (PrestoBlue); type: cell-based; conditions: Homo sapiens, NCI-H226, 72 h; read-out: Cytotoxic IC50
Description: as §1

[16] = system: HCT-116; test: In vitro cytotoxicity (PrestoBlue); type: cell-based; conditions: Homo sapiens, HCT-116, 72 h; read-out: Cytotoxic IC50
Description: as §1

[17] = system: CCRF-CEM; test: In vitro cytotoxicity (PrestoBlue); type: cell-based; conditions: Homo sapiens, 72 h, read-out: Cytotoxic IC50
Description: as §1

[18] = system: HL-60(TB); test: In vitro cytotoxicity (PrestoBlue); type: cell-based; conditions: Homo sapiens, 72 h, read-out: Cytotoxic IC50
Description: as §1

[19] = system: PANC-1; test: In vitro cytotoxicity (PrestoBlue); type: cell-based; conditions: Homo sapiens, PANC-1, 72 h; read-out: Cytotoxic IC50
Description: as §1

[20] = system: EKVX; test: In vitro cytotoxicity (PrestoBlue); type: cell-based; conditions: Homo sapiens, 72 h, read-out: Cytotoxic IC50
Description: as §1

[21] = system: OVCAR-8; test: In vitro cytotoxicity (PrestoBlue); type: cell-based; conditions: Homo sapiens, OVCAR-8, 72 h; read-out: Cytotoxic IC50
Description: as §1

[22] = system: Bx-PC-3; test: In vitro cytotoxicity (PrestoBlue); type: cell-based; conditions: Homo sapiens, BXPC-3; Bx-PC-3, 72 h; read-out: Cytotoxic IC50
Description: as §1

[23] = system: RXF 393; test: In vitro cytotoxicity (PrestoBlue); type: cell-based; conditions: Homo sapiens, RXF 393, 72 h; read-out: Cytotoxic IC50
Description: as §1

[24] = system: KM12; test: In vitro cytotoxicity (PrestoBlue); type: cell-based; conditions: Homo sapiens, KM12, 72 h; read-out: Cytotoxic IC50
Description: as §1

[25] = In vivo toxicity (dose-finding) studies; parameters: species or system FVB mice; conditions: for Mortality (%) / Survival: single iv
Description: PyDau and LiPyDau dose-finding studies were done using 10 weeks old FVB mice, by single intravenous injections of different doses of the compounds (3 mouse/dose) via the tail vein. The status of the mice was monitored daily for signs of pain or discomfort. Mice were euthanized at 20% body weight loss or at a low score (1 or 2) on the Body Condition Scoring scale. Survival was followed for 30 days and the Maximum Tolerable Dose (MTD) was defined as the highest dose where 100% survival was observed.

[26] = In vivo toxicity (dose-finding) studies; parameters: species or system FVB mice; conditions: 0.25 mg/kg given repeatedly, later experiments

COc1cccc2c1C(=O)c1c(O)c3c(c(O)c1C2=O)C[C@@](O)(C(=O)CO)C[C@@H]3O[C@H]1C[C@H](N)[C@H](O)[C@H](C)O1 [DOX, doxorubicin]
IC50 ([1]; read-out: Cytotoxic IC50, av. breast): 190 nM
IC50 ([1]; read-out: Cytotoxic IC50, av. colorectal): 296 nM
IC50 ([1]; read-out: Cytotoxic IC50, av. leukaemia): 49.8 nM
IC50 ([1]; read-out: Cytotoxic IC50, av. lung): 221 nM
IC50 ([1]; read-out: Cytotoxic IC50, av. melanoma): 177 nM
IC50 ([1]; read-out: Cytotoxic IC50, av. ovarian): 3650 nM
IC50 ([1]; read-out: Cytotoxic IC50, av. prostatic): 173 nM
IC50 ([1]; read-out: Cytotoxic IC50, av. renal): 247 nM
IC50 [2]: 130 nM
IC50 [3]: 100 nM
IC50 [4]: 66.1 nM
IC50 [5]: 51.9 nM

COc1cccc2c1C(=O)c1c(O)c3c(c(O)c1C2=O)C[C@@](O)(C(C)=O)C[C@@H]3O[C@H]1C[C@H]2[C@H](OC3CCCN32)[C@H](C)O1 (stereo partly drawn) [PyDau, 2-deamino-2-pyrrolino-daunorubicin]
Stability on storage [6]: stable for long time
IC50 [7]: 1.43 nM
IC50 [8]: 2.78 nM
IC50 [9]: 2.38 nM
IC50 [10]: 8.19 nM
IC50 [11]: 1.84 nM
IC50 [12]: 0.94 nM
IC50 [13]: 4.16 nM
IC50 [14]: 6.87 nM
IC50 [15]: 4.44 nM
IC50 [16]: 3 nM
IC50 [17]: 0.23 nM
IC50 [18]: 0.9 nM
IC50 [19]: 1.77 nM
IC50 [20]: 3.67 nM
IC50 [21]: 1.19 nM
IC50 [22]: 4.68 nM
IC50 [23]: 4.66 nM
IC50 [24]: 1.42 nM
Lethality ([25]; 3, 2, 1 and 0.5 mg/kg): lethal
Mortality (%) ([25]; PyDau dose 0.05 mg/kg): 0%
Survival ([25]; PyDau dose 0.05 mg/kg): >30 days
Mortality (%) ([25]; PyDau dose 0.1 mg/kg): 0%
Survival ([25]; PyDau dose 0.1 mg/kg): >30 days
Mortality (%) ([25]; PyDau dose 0.17 mg/kg): 0%
Survival ([25]; PyDau dose 0.17 mg/kg): >30 days
Mortality (%) ([25]; PyDau dose 0.25 mg/kg): 0%
Survival ([25]; PyDau dose 0.25 mg/kg): >30 days
Mortality (%) ([25]; PyDau dose 0.5 mg/kg): 100%
Survival ([25]; PyDau dose 0.5 mg/kg): 11 days
Mortality (%) ([25]; PyDau dose 1 mg/kg): 100%
Survival ([25]; PyDau dose 1 mg/kg): 4 days
Mortality (%) ([25]; PyDau dose 2 mg/kg): 100%
Survival ([25]; PyDau dose 2 mg/kg): 2 days
Mortality (%) ([25]; PyDau dose 3 mg/kg): 100%
Survival ([25]; PyDau dose 3 mg/kg): 2 days
Safety window ([25]; dose-finding studies in mice): too narrow
MTD at 30 days ([25]; mouse, in vivo, single intravenous injection, FVB mice, highest dose with 100% survival over 30 days, read-out: Maximum Tolerable Dose (MTD)): 0.25 mg/kg
Toxicity when given repeatedly [26]: still toxic
